From ChEMBL document CHEMBL1201862, “PubChem BioAssay data set” (2004)
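These data come from cells grown in 96-well plates and exposed to compound for 48 hours at five concentrations. At the GI50, growth is halved.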 Activity calls are given as the source filed them. Cut-off read from the data, not from the text of the source: active = GI50 up to about 1.1 µM and inactive = higher.

Key:
Assay in all cases: NCI anticancer screen, dose series, 48 h
MCF7 = test system: MCF7
HOP-92 = test system: HOP-92
NCI/ADR-RES = test system: NCI/ADR-RES
ACHN = test system: ACHN
HOP-62 = test system: HOP-62
MOLT-4 = test system: MOLT-4
HCT-15 = test system: HCT-15
Malme-3M = test system: Malme-3M
SF-539 = test system: SF-539
M14 = test system: M14
NCI-H226 = test system: NCI-H226
SN12C = test system: SN12C
CAKI-1 = test system: CAKI-1
OVCAR-5 = test system: OVCAR-5
SK-OV-3 = test system: SK-OV-3
HCC 2998 = test system: HCC 2998
T47D = test system: T47D
RPMI-8226 = test system: RPMI-8226
A498 = test system: A498
UO-31 = test system: UO-31
OVCAR-3 = test system: OVCAR-3
HCT-116 = test system: HCT-116
EKVX = test system: EKVX
K562 = test system: K562
BT-549 = test system: BT-549
NCI-H23 = test system: NCI-H23
UACC-62 = test system: UACC-62
DU-145 = test system: DU-145
HL-60 = test system: HL-60
COLO 205 = test system: COLO 205
OVCAR-4 = test system: OVCAR-4
SK-MEL-5 = test system: SK-MEL-5
UACC-257 = test system: UACC-257
MDA-N = test system: MDA-N
SK-MEL-28 = test system: SK-MEL-28
SF-268 = test system: SF-268
KM12 = test system: KM12
NCI-H522 = test system: NCI-H522
SK-MEL-2 = test system: SK-MEL-2
Hs-578T = test system: Hs-578T
U-251 = test system: U-251
A549 = test system: A549
OVCAR-8 = test system: OVCAR-8
SW-620 = test system: SW-620
CCRF-CEM = test system: CCRF-CEM
MDA-MB-435 = test system: MDA-MB-435
SR = test system: SR
RXF 393 = test system: RXF 393
LOX IMVI = test system: LOX IMVI
MDA-MB-231 = test system: MDA-MB-231
NCI-H460 = test system: NCI-H460
TK-10 = test system: TK-10
786-0 = test system: 786-0
SF-295 = test system: SF-295
SNB-19 = test system: SNB-19

SMILES: COc1ccc(N2C(=O)/C(=C\c3cccc(Oc4ccccc4)c3)SC2c2ccccc2)cc1 (stereo not given)
- GI50 (MCF7): 29.9 µM (inactive)
- GI50 (HOP-92): 28.2 µM (inactive)
- GI50 (NCI/ADR-RES): 42.5 µM (inactive)
- GI50 (ACHN): > 100 µM (inactive)
- GI50 (HOP-62): 64.9 µM (inactive)
- GI50 (MOLT-4): 26.7 µM (inactive)
- GI50 (HCT-15): > 100 µM
- GI50 (Malme-3M): 34.6 µM (inactive)
- GI50 (SF-539): 24.5 µM (inactive)
- GI50 (M14): 49.7 µM (inactive)
- GI50 (NCI-H226): > 100 µM (inactive)
- GI50 (SN12C): > 100 µM (inactive)
- GI50 (CAKI-1): > 100 µM (inactive)
- GI50 (OVCAR-5): > 100 µM (inactive)
- GI50 (SK-OV-3): 80.9 µM (inactive)
- GI50 (HCC 2998): > 100 µM (inactive)
- GI50 (T47D): 37.5 µM (inactive)
- GI50 (RPMI-8226): 21.2 µM (inactive)
- GI50 (A498): > 100 µM (inactive)
- GI50 (UO-31): 37.4 µM (inactive)
- GI50 (OVCAR-3): 33.9 µM (inactive)
- GI50 (HCT-116): 25.4 µM (inactive)
- GI50 (EKVX): > 100 µM (inactive)
- GI50 (K562): 26.4 µM (inactive)
- GI50 (BT-549): 25.3 µM (inactive)
- GI50 (NCI-H23): 41.7 µM (inactive)
- GI50 (UACC-62): 50.2 µM (inactive)
- GI50 (DU-145): 73.8 µM (inactive)
- GI50 (HL-60): 20.5 µM (inactive)
- GI50 (COLO 205): 66.8 µM (inactive)
- GI50 (OVCAR-4): 40.2 µM (inactive)
- GI50 (SK-MEL-5): 27.9 µM (inactive)
- GI50 (UACC-257): 38.7 µM (inactive)
- GI50 (MDA-N): 29.3 µM (inactive)
- GI50 (SK-MEL-28): 38.1 µM (inactive)
- GI50 (SF-268): 33.2 µM (inactive)
- GI50 (KM12): 45 µM (inactive)
- GI50 (NCI-H522): 8.24 µM (inactive)
- GI50 (SK-MEL-2): > 100 µM (inactive)
- GI50 (Hs-578T): 10.3 µM (inactive)
- GI50 (U-251): 26.1 µM (inactive)
- GI50 (A549): > 100 µM (inactive)
- GI50 (OVCAR-8): 28.6 µM (inactive)
- GI50 (SW-620): 32.9 µM (inactive)
- GI50 (CCRF-CEM): 5.3 µM (inactive)
- GI50 (MDA-MB-435): 30.5 µM (inactive)
- GI50 (SR): 16.7 µM (inactive)
- GI50 (RXF 393): 8.59 µM (inactive)
- GI50 (LOX IMVI): 21.9 µM (inactive)
- GI50 (MDA-MB-231): > 100 µM (inactive)
- GI50 (NCI-H460): > 100 µM (inactive)
- GI50 (TK-10): > 100 µM (inactive)
- GI50 (786-0): > 100 µM (inactive)
- GI50 (SF-295): 60 µM (inactive)
- GI50 (SNB-19): 24.2 µM (inactive)
